Results reported in PubChem BioAssay AID743476 (The Scripps Research Institute Molecular Screening Center, 2014).
Activity calls are given as the source filed them. No rule for the calls is given here.

Tested on: CCHF-vOTU
Assay: PubChem AID 743476
Conditions: Recombinant CCHFV vOTU, PEP-AMC fluorescence cleavage, with PEP-AMC substrate, active compounds read high

With O=C(/C=C/c1ccc(O)cc1)c1ccc(NC2=C(N3CCCCC3)C(=O)c3ccccc3C2=O)cc1 the inhibition (Assay 1, at 3.35 µM) was 14.3% (inactive), the inhibition (Assay 2, at 3.35 µM) was 16.3% (inactive) and the inhibition (Assay 3, at 6.7 µM) was 33.6%.
For CCC(CNc1cc(OC)cc2cccnc12)NC1CCCCC1 (stereo not drawn), the inhibition (Assay 1, at 6.32 µM) was -27% (inactive), the inhibition (Assay 2, at 6.32 µM) was 13.6% (inactive) and the inhibition (Assay 3, at 12.64 µM) was 52.4%.
In the case of O=C(NC1=CC(=O)c2ccccc2C1=O)c1ccccc1, the inhibition (Assay 1, at 3.85 µM) is reported as 5.25% (inactive), the inhibition (Assay 2, at 3.85 µM) is reported as 9.67% (inactive) and the inhibition (Assay 3, at 7.7 µM) is reported as 16.4% (inactive).
In the case of Cc1c(Cl)cnc(NC(=O)COC(=O)c2ccc([N+](=O)[O-])s2)c1Cl, the inhibition (Assay 1, at 7.08 µM) is reported as 9.06% (inactive), the inhibition (Assay 2, at 7.08 µM) is reported as 5.86% (inactive) and the inhibition (Assay 3, at 14.16 µM) is reported as 14.2% (inactive).
With Cc1cnc(C2OCCO2)c2cccc(N)c12 the inhibition (Assay 1, at 2.56 µM) was 16.2% (inactive), the inhibition (Assay 2, at 2.56 µM) was 0.6% (inactive) and the inhibition (Assay 3, at 5.12 µM) was 1% (inactive).
CCOC(=O)N=Nc1c2ccccc2c2nc3no[nH]c3nc12 was tested, and the inhibition (Assay 1, at 2.35 µM) was 8.81% (inactive), the inhibition (Assay 2, at 2.35 µM) was 13.6% (inactive) and the inhibition (Assay 3, at 4.7 µM) was 25.3%.
COC(CNC(=O)c1ccc2c3c(onc13)-c1ccccc1C2=O)OC was tested, and the inhibition (Assay 1, at 3.49 µM) was 16.6% (inactive), the inhibition (Assay 2, at 3.49 µM) was 12.4% (inactive) and the inhibition (Assay 3, at 6.98 µM) was 35.5%.
In the case of NS(=O)(=O)c1ccc(NC2=CC(=O)C(=O)c3ccccc32)cc1, the inhibition (Assay 1, at 4.85 µM) is reported as 6.01% (inactive) and the inhibition (Assay 2, at 4.85 µM) is reported as 30.6%.
In the case of Cn1nc(-c2ccccn2)nc2c(=O)n(C)c(=O)nc1-2, the inhibition (Assay 1, at 0.37 µM) is reported as 63.3% and the inhibition (Assay 2, at 0.37 µM) is reported as 56.2%.
For O=C(OCc1nnc(-c2ccccc2)o1)c1ccc([N+](=O)[O-])s1, the inhibition (Assay 1, at 7.52 µM) was 3.79% (inactive), the inhibition (Assay 2, at 7.52 µM) was -3.16% (inactive) and the inhibition (Assay 3, at 15.04 µM) was 25%.
O=C(COC(=O)c1ccc([N+](=O)[O-])s1)Nc1ccc(F)cc1 was tested, and the inhibition (Assay 1, at 7.8 µM) was 9.26% (inactive), the inhibition (Assay 2, at 7.8 µM) was 9.2% (inactive) and the inhibition (Assay 3, at 15.6 µM) was 17.4% (inactive).
O=C(O)CSc1cc(NS(=O)(=O)c2ccc(Cl)cc2)c2ccccc2c1O was tested, and the inhibition (Assay 1, at 5 µM) was 6.76% (inactive), the inhibition (Assay 2, at 5 µM) was 8.14% (inactive) and the inhibition (Assay 3, at 10 µM) was 7.8% (inactive).
With COc1cc(NCCCC(C)N)c2ncccc2c1 (stereo not drawn) the inhibition (Assay 1, at 2.52 µM) was 25.6%, the inhibition (Assay 2, at 2.52 µM) was 0.7% (inactive) and the inhibition (Assay 3, at 5.04 µM) was -1.2% (inactive).
O=C1Cc2ccccc2C(=O)N1Cc1ccccc1 showed an inhibition (Assay 1, at 1.28 µM) of 38.7% and an inhibition (Assay 2, at 1.28 µM) of 50.3%.
For O=C1OC(Nc2cc(Br)cc3cccnc23)c2ccccc21 (stereo not drawn), the inhibition (Assay 1, at 5.23 µM) was 21.7%, the inhibition (Assay 2, at 5.23 µM) was 16.9% (inactive) and the inhibition (Assay 3, at 10.46 µM) was 10.9% (inactive).
O=S(=O)(Nc1cc2nc3ccccc3nc2n1Cc1ccccc1)c1ccc(Cl)cc1 was tested, and the inhibition (Assay 1, at 2.57 µM) was 72.3%, the inhibition (Assay 2, at 2.57 µM) was -112% (inactive) and the inhibition (Assay 3, at 5.14 µM) was 47.9% (inactive).
In the case of O=C1Cc2ccccc2C(=O)N1, the inhibition (Assay 1, at 0.4 µM) is reported as 38.8% and the inhibition (Assay 2, at 0.4 µM) is reported as 54.3%.
For S=C(Nc1ccc(Cl)cc1)Nc1cccc2cnccc12, the inhibition (Assay 1, at 6.44 µM) was -17.9% (inactive), the inhibition (Assay 2, at 6.44 µM) was 5.81% (inactive) and the inhibition (Assay 3, at 12.88 µM) was 7.7% (inactive).
Work on O=C1C=C(Nc2ccccc2)c2ccccc2C1=O yielded an inhibition (Assay 1, at 6.87 µM) of 22.4% and an inhibition (Assay 2, at 6.87 µM) of 52.9%.
In the case of CCc1cc[n+](C2=C(NS(=O)(=O)c3cccs3)C(=O)c3ccccc3C2=O)cc1, the inhibition (Assay 1, at 4.39 µM) is reported as 13.7% (inactive), the inhibition (Assay 2, at 4.39 µM) is reported as 18.6% (inactive) and the inhibition (Assay 3, at 8.78 µM) is reported as 37.9%.
For Cc1ccc2c(c1C)-c1c(ccc(C)c1C)C(=O)C2=O, the inhibition (Assay 1, at 7.79 µM) was -37.1% (inactive), the inhibition (Assay 2, at 7.79 µM) was 18% (inactive) and the inhibition (Assay 3, at 15.58 µM) was 38.4%.
